Test results from patent US12251373B2, “Compounds and methods of treating retinal degeneration” (CASE WESTERN RESERVE UNIVERSITY, priority 2017, dated 2025).
Read-outs that look alike come from different tables or passages of the source.

How the values were obtained:
Type in all cases: cell-based
P23H opsin = target: T1, P23H opsin (Mus musculus, UniProt P15409, P23H); experiment: Immunoblot of P23H opsin glycosylation in NIH3T3 cells; parameters: key to Improved glycosylation: n = no; y = yes; conditions: P23H opsin
T1 construct: expressed in transfected cells
Method: NIH3T3-(P23H-opsin/GFP) or NIH3T3-(WT-opsin/GFP) cells were seeded in a 48-well plate (Corning Costar) at 3.2×10^5 cells per well and incubated at 37° C. with 5% CO2 for 2 h. One hundred-μL of assay medium containing a compound at 5× its final concentration was added to each well. The plate was gently shaken for 5 s before further incubation at 37° C. with 5% CO2 for 24 h. The assay medium then was aspirated, and cells were lysed with 100 μL per well PBS containing 0.1% Triton X-100 and complete protease inhibitor cocktail (Roche, Basel, Switzerland) followed by sonication for 3 s. Protein concentrations were determined with the Bradford assay. For PNGase F catalyzed deglycosylation, 3 μL of PNGase F (1,500 U, NEB) was added to the cell lysate and the mixture was incubated at room temperature for 1 h before immunoblotting. For NIH3T3-(P23H-opsin/GFP) cells, 15 μg of total protein were loaded per well onto an SDS-polyacrylamide gel; whereas for NIH3T3-(WT-opsin/GFP) cells, 10 μg of total protein was loaded per well. Opsin protein was immunostained with 0.2 μg mL^−1 horseradish peroxidase-conjugated 1D4 anti-rhodopsin antibody. Band intensities were measured with ImageJ software (http://imagej.nih.gov/ij/; National the Institutes of Health, Bethesda, MD, USA) and normalized to a glyceraldehyde 3-phosphate dehydrogenase (GAPDH) loading control.

mouse P23H opsin mutant = mouse P23H opsin mutant (Mus musculus, UniProt P15409, P23H); experiment: β-Gal fragment complementation assay: rescue of P23H opsin transport from ER to plasma membrane, U2OS(PLC-EA/P23H-PK) cells; conditions: for Emax: U2OS
Text: U2OS(PLC-EA/P23H-PK) cells. A U2OS stable cell line was generated by DiscoveRx, Inc. (Fremont, CA, USA) for the β-Gal fragment complementation assay used in the small molecule HTS for rescue of P23H opsin transport. U2OS cells that continually express P23H-PK and PLC-EA fusion proteins were generated. Briefly, this small subunit of […] (PK fragment) was fused to the C-terminal of the mouse P23H opsin mutant, while the large EA fragment, a subunit of […], was fused with PLC, a plasma membrane anchored peptide. Both constructs were subcloned by DicoveRx, Inc. and transferred into U2OS cells by viral infections. Positive clones were selected under treatment with hygromycin and geneticin.
Briefly, U2OS(PLC-EA/P23H-PK) cells were suspended in assay medium at 3×10^5 cells mL^−1. The cell suspension was dispensed into 384-well plates (Greiner Bio-one, Monroe, NC, USA) at 20 μL per well, with a Multidrop dispenser (Thermo Scientific, Waltham, MA, USA). Plates with cells then were centrifuged at 200 g for 15 s before incubation at 37° C. with 5% CO2. Plates were removed 24 h later for treatment with tested compounds. A total of 248 plates containing 79,080 compounds from three small molecule libraries were paired with an equal number of assay plates with cultured cells. Due to a limited capacity, these plates were assayed in seven batches. An average of 56.3 nL of 10 mM compound in DMSO was dispensed into each well from column 3 to 22 of paired assay plates using a 50 nL 384-pintool system, such that the final concentration of each compound was 22.52 μM on average. […] Each assay plate was shaken for 5 s before further incubation at 37° C. with 5% CO2. […] Assay plates were incubated in the dark for 60-90 min, and luminescence was read from each assay plate with an Envision microplate reader (PerkinElmer) during a 0.1 s per well integration time. The mean and s.d. of readouts in column 2 of each plate were calculated as Mean0% and SD0%, whereas the average and s.d. of readouts in column 23 were calculated as Mean100% and SD100%. Equation 1: Activity scores (%)=(RLUcp−Mean0%)/(Mean100%−Mean0%)×100%, where RLUcp is the relative luminescence unit derived for cells treated with a compound. Equation 2: Z′-factor=1-3×(SD0%+SD100%)/(Mean100%−Mean0%); Equation 3: signal-to-background (S/B) ratio=Mean100%/Mean0%. Activities of all tested compounds were registered with their compound ID by GeneData Screener (Genedata, Basel, Switzerland) and Pipeline Pilot software (Accelrys, San Diego, CA, USA). Hits, cherry-picked from a separate stock dose-dependent activity test, were selected with an activity score cutoff at 20%. Activity of each hit was tested again with the β-Gal fragment complementation assay in a 10-dose series with each dose tested in triplicate. The 10 doses tested were 80, 40, 20, 10, 5, 2.5, 1.25, 0.625, 0.313, and 0.156 μM. Dose-dependent curves of each hit compound were fitted with GeneData and Origin software.
Detailed synthetic steps are described in FIG. 18. […] YC-002-YC-021 were purchased from commercial vendors including Enamine LLC (Monmouth Jct., NJ, USA), Matrix Scientific (Columbia, SC, USA) and Tokyo Chemical Industry Co., Ltd. (Portland, OR, USA). […] Activities of YC compounds were tested with the β-Gal fragment complementation assay, as described in a prior section. All YC compounds were tested at 10 doses, each in triplicate: 80, 40, 20, 10, 5, 2.5, 1.25, 0.625, 0.313, and 0.156 μM.

mouse P23H opsin = target: T2, mouse P23H opsin (Mus musculus, UniProt P15409, P23H); experiment: Immunostain and image-based high-content analysis of P23H mutant opsin in NIH3T3 cells; conditions: ratio of P23H rod opsin fluorescence on plasma membrane to whole cell; for EC50: read-out: Immunostaining HCS MEM-Total ratio EC50
T2 construct: expressed in transfected cells
Text: Three NIH3T3 stable cell lines, NIH3T3-(WT-opsin/GFP), NIH3T3-(P23H-opsin/GFP), and NIH3T3-(GFP) were previously generated which stably express mouse WT opsin and GFP; P23H opsin and GFP; and only GFP, respectively. GFP is expressed separately from opsin in these cell lines. NIH3T3 cells were from ATCC. DNA constructs for generating these stable cell lines were confirmed by Sanger sequencing. Expression of GFP was confirmed by green fluorescence imaging, and expression of P23H and WT opsin were confirmed by immunoblots.
To characterize the effect of active compounds on the localization of P23H mutant opsin in mammalian cells, an image-based assay was used with cells immunostained for WT or P23H mutant opsin protein. Briefly, NIH3T3-(P23H-opsin/GFP) or NIH3T3-(WT-opsin/GFP) cells were seeded at 5,000 cells per well in a 384-well cell-carrier plate (PerkinElmer) and incubated at 37° C. with 5% CO2 for 2 h. Cells were treated with compounds as described for the β-Gal fragment complementation assay and incubated in assay medium for 24 h. The assay medium then was aspirated, and cells were fixed with 4% paraformaldehyde at 20 μL per well for 20 min at RT. Cells were immunostained in one of two ways: cell membranes were either permeabilized with 0.1% Triton X-100 for 15 min or left intact and then were incubated with 10% goat serum (Life Technologies). To detect opsin on the cell plasma membrane only, intact cells were immunostained with 20 μL per well of 20 μg mL^−1 B6-30 anti-rhodopsin antibody that recognizes the N-terminal epitope on the extracellular side of rhodopsin. To detect total opsin, cells were permeabilized with Triton X-100 and immunostained with 50 μg mL^−1 1D4 anti-rhodopsin antibody specific for the C-terminal epitope on the intracellular side of rhodopsin. Opsin immunostaining was visualized by incubating cells with 5 μg mL^−1 Cy3-conjugated goat anti-mouse IgG antibody. Three washes with phosphate-buffered saline (PBS: 10 mM Na2HPO4, 1.8 mM KH2PO4, pH 7.4, 137 mM NaCl, and 2.7 mM KCl) were performed between each step of incubation with antibody. In the last wash with PBS, DAPI was added to each well at 300 nM. Fluorescence images were obtained with the Operetta High Content Imaging System (PerkinElmer) using a 20× long objective. Five fields were taken of each well for cell images using three channels for fluorescence: GFP (100 ms), Cy3 (300 ms), and DAPI (50 ms). Images were analyzed with Acapella software from the Columbus data storage and analysis system (PerkinElmer). For cells immunostained with opsin on the non-permeabilized cell membrane only, an average of total fluorescence intensity of Cy3 per cell was used to quantify opsin in each well of the 384-well plate. For cells immunostained with opsin in permeabilized whole cells, an average ratio of Cy3 intensity on the cell plasma membrane (PM) to that of the entire cell (opsin ratio PM-to-total) was calculated for each well of a 384-well plate to quantify opsin transport to the plasma membrane. The plasma membrane was defined within ±5% of the cell border.

[1] = Table 1, experimental maximum, read-out: β-Gal fragment complementation assay Activity score (%) Max (Exp)
[2] = Table 1, fitted maximum, read-out: β-Gal fragment complementation assay Activity score (%) Max (fit)
[3] = read-out: β-Gal fragment complementation assay Activity score (%) EC50
[4] = Table 3, modifications at C4 of the furan-2(5H)-one ring, read-out: Potency
[5] = Table 5, more than one site modified, read-out: Potency
[6] = Table 2, modifications at C3 of the furan-2(5H)-one ring, read-out: Potency EC50

Row | Structure (SMILES) | Improved glycosylation (P23H opsin) | Emax (mouse P23H opsin mutant; [1]) | Emax (mouse P23H opsin mutant; [2]) | EC50 (mouse P23H opsin mutant; [3]) | Immunostaining HCS MEM-Total ratio Max (fit) (mouse P23H opsin) | EC50 (mouse P23H opsin) | Emax (mouse P23H opsin mutant; read-out: Efficacy (%)) | further results
1 | COCCNC(=O)c1sc2c(cnc3ccc(OC)cc32)c1-c1ccccc1 [Compound F3382-5924] | y | 931% | 155% | 28.6 µM | 0.046 | 2.42 µM | – | –
2 | O=C(C1CC1)N(CCn1cccn1)c1nc2c(Cl)cccc2s1 [Compound F5581-0240] | y | 244% | 230% | 5.93 µM | 0.010 | 0.64 µM | – | –
3 | O=C(NCCCn1cccc1)c1cc(-c2ccccc2)on1 [Compound F5937-0207] | n | 32.8% | 37.3% | 8.38 µM | 0.021 | 1.33 µM | – | –
4 | O=C(NCC#CCN1CCCC1)c1cc(-c2ccccc2)on1 [Compound F6244-1415] | n | 24.8% | 25.2% | 8.61 µM | 0.063 | 4.2 µM | – | –
5 | Cc1cc(OCC(=O)Nc2cc(N3CCOCC3)ncn2)cc(C)c1Cl [Compound F6257-1860] | n | 211% | 234% | 10.7 µM | 0.022 | 1.07 µM | – | –
6 | O=C1OCC(c2ccc(Br)s2)=C1c1ccc(Cl)c(Cl)c1 [YC-008] | – | – | – | – | – | – | 11% | EC50 (mouse P23H opsin mutant; [5]): 25 µM
7 | O=C1OCC(c2ccc(Br)s2)=C1c1ccc(F)cc1 [YC-009] | – | – | – | – | – | – | 10% | EC50 (mouse P23H opsin mutant; [5]): 7.2 µM
8 | O=C1OCC(c2ccc(Br)s2)=C1c1ccc(Cl)cc1 [YC-011] | – | – | – | – | – | – | 10% | EC50 (mouse P23H opsin mutant; [5]): 7.5 µM
9 | O=C1OCC(c2ccc(Cl)s2)=C1c1ccccc1[N+](=O)[O-] [YC-013] | – | – | – | – | – | – | 111% | EC50 (mouse P23H opsin mutant; [6]): 11 µM
10 | O=C1OCC(c2ccc(Cl)s2)=C1c1ccccc1Cl [YC-032] | – | – | – | – | – | – | 288% | EC50 (mouse P23H opsin mutant; [6]): 5.8 µM
11 | COc1ccccc1C1=C(c2ccc(Cl)s2)COC1=O [YC-033] | – | – | – | – | – | – | 38.3% | EC50 (mouse P23H opsin mutant; [6]): 8.5 µM
12 | O=C1OCC(c2ccc(Cl)s2)=C1c1cccc(Cl)c1 [YC-034] | – | – | – | – | – | – | 43.5% | EC50 (mouse P23H opsin mutant; [6]): 4.75 µM
13 | O=C1OCC(c2ccco2)=C1c1cccs1 [YC-049] | – | – | – | – | – | – | – | Efficacy (%) (mouse P23H opsin mutant; Table 3, normalized to 5 μM 9-cis-retinal): 112%

The next lines start with results.

Row | Improved glycosylation (P23H opsin) | Emax (mouse P23H opsin mutant; [1]) | Emax (mouse P23H opsin mutant; [2]) | EC50 (mouse P23H opsin mutant; [3]) | Immunostaining HCS MEM-Total ratio Max (fit) (mouse P23H opsin) | EC50 (mouse P23H opsin) | Emax (mouse P23H opsin mutant; read-out: Efficacy (%)) | Structure (SMILES) | further results
14 | n | 23.1% | 31.5% | 21.6 µM | 0.031 | 4.15 µM | – | O=C(NCCn1ncc2c(NCc3ccco3)ncnc21)c1cc(-c2ccccc2)on1 [Compound F2902-1134] | –
15 | y | 60.4% | 165% | 54.3 µM | 0.025 | 6.76 µM | – | O=C(Cn1c2c(c(=O)n(C3CCCCC3)c1=O)CCC2)Nc1cccc(F)c1 [Compound F5111-0031] | –
16 | n | 31.8% | 51.6% | 25 µM | 0.041 | 6.2 µM | – | O=C(NCCCOc1cccc2cccnc12)c1cc(-c2ccccc2)on1 [Compound F5875-0200] | –
17 | – | – | – | – | – | – | 6% | O=C1OCC(c2cccs2)=C1c1cccs1 [YC-002] | EC50 (mouse P23H opsin mutant; [4]): 33 µM
18 | – | – | – | – | – | – | 5% | O=C1OCC(c2ccc(Cl)cc2)=C1c1cccs1 [YC-003] | EC50 (mouse P23H opsin mutant; [4]): 22 µM
19 | – | – | – | – | – | – | 95% | Cc1sc(C)c(C2C(=O)OC(=O)C2c2c(C)sc(C)c2C)c1C (centres unmarked) [YC-018] | –
20 | – | – | – | – | – | – | 160% | O=C1OCC(c2ccc(F)s2)=C1c1cccs1 [YC-021] | EC50 (mouse P23H opsin mutant; [4]): 103 µM
21 | – | – | – | – | – | – | 214% | O=C1OCC(c2ccc(Cl)s2)=C1c1ccccn1 [YC-043] | EC50 (mouse P23H opsin mutant; [6]): 19 µM
22 | – | – | – | – | – | – | 10% | O=C1OCC(c2ccc(F)cc2)=C1c1cccs1 [YC-044] | EC50 (mouse P23H opsin mutant; [4]): 37.6 µM
